Values belong to the compound of their own block, whether it stands above or below them.
Columns and labels:
[1] = tested on: PHBPU; experiment: greenhouse post-emergence herbicidal test; format: in vivo, morning glory, common
Description: (§1) The seeds of the test plants were sown separately for each species. For the post-emergence treatment, the test plants were first grown to a plant height of from 3 to 15 cm, depending on the plant habit, and only then treated with the active compounds which had been suspended or emulsified in water. To this end, the test plants were either sown directly and grown in the same containers, or they were first grown separately as seedlings and transplanted into the test containers a few days prior to treatment. […] Depending on the species, the plants were kept at from 10 to 25° C., or 20-35° C., respectively. The test period extended over 2 to 4 weeks. During this time, the plants were tended, and their response to the individual treatments was evaluated. Evaluation was carried out using a scale of from 0 to 100. 100 means no emergence of the plants, or complete destruction of at least the aerial parts, and 0 means no damage, or normal course of growth. A damage of at least 95% corresponds to very good herbicidal action. The plants used in the greenhouse experiments were of the following species: [table]

[2] = tested on: ECHCG; experiment: greenhouse post-emergence herbicidal test; format: in vivo, barnyard grass
Description: as §1

[3] = tested on: CHEAL; experiment: greenhouse post-emergence herbicidal test; format: in vivo, lambs' quarters (goose-foot)
Description: as §1

[4] = tested on: POLPE; experiment: greenhouse post-emergence herbicidal test; format: in vivo, lady's thumb; settings: 31.3 g/ha (a.s.), read-out: herbicidal action against POLPE
Description: (§2) The seeds of the test plants were sown separately for each species. For the post-emergence treatment, the test plants were first grown to a plant height of from 3 to 15 cm, depending on the plant habit, and only then treated with the active compounds which had been suspended or emulsified in water. To this end, the test plants were either sown directly and grown in the same containers, or they were first grown separately as seedlings and transplanted into the test containers a few days prior to treatment. The rate of application for the post-emergence treatment was 250, 125, 62.5, 31.3 and/or 15.6 g/ha of active substance (a.s.). Depending on the species, the plants were kept at from 10 to 25° C., or 20-35° C., respectively. The test period extended over 2 to 4 weeks. During this time, the plants were tended, and their response to the individual treatments was evaluated. Evaluation was carried out using a scale of from 0 to 100. 100 means no emergence of the plants, or complete destruction of at least the aerial parts, and 0 means no damage, or normal course of growth. A damage of at least 95% corresponds to very good herbicidal action. The plants used in the greenhouse experiments were of the following species: [table]

[5] = tested on: AMARE; experiment: greenhouse post-emergence herbicidal test; format: in vivo, redroot pigweed; settings: 125 or 250 g/ha (a.s.)
Description: as §2

[6] = tested on: SETFA; experiment: greenhouse post-emergence herbicidal test; format: in vivo, giant foxtail; settings: 125 or 250 g/ha (a.s.)
Description: as §2

[7] = tested on: BRAPL; experiment: greenhouse post-emergence herbicidal test; format: in vivo, marmalade grass; settings: 125 or 250 g/ha (a.s.)
Description: as §2

[8] = tested on: ABUTH; experiment: greenhouse post-emergence herbicidal test; format: in vivo, velvet leaf; settings: 125 or 250 g/ha (a.s.)
Description: as §2

[9] = tested on: MATIN; experiment: greenhouse post-emergence herbicidal test; format: in vivo, chamomile, false; settings: 125 or 62.5 g/ha (a.s.)
Description: as §2

[10] = tested on: SINAL; experiment: greenhouse post-emergence herbicidal test; format: in vivo, white mustard; settings: 125 or 62.5 g/ha (a.s.)
Description: as §2

[11] = tested on: LAMAM; experiment: greenhouse post-emergence herbicidal test; format: in vivo, henbit; settings: 125 or 62.5 g/ha (a.s.)
Description: as §2

SMILES: Cc1c(C(=O)C2=C(O)C(C)(C)C(=O)C(C)(C)C2=O)ccc2sc(=O)n(C)c12 [Compound I-1d.1129, 3,4-dimethyl-5-(4′,4′,6′,6′-tetramethyl-1′,3′,5′-cyclohexane-trion-2′-yl)-carbonylbenzothiazol-2-one]
herbicidal action against PHBPU ([1]; 16.5 g/ha of a.s.): very good herbicidal action (A damage of at least 95% corresponds to very good herbicidal action)
herbicidal action against PHBPU ([1]; 31.3 g/ha (a.s.)): very good herbicidal action (A damage of at least 95% corresponds to very good herbicidal action)
herbicidal action against ECHCG ([2]; 16.5 g/ha of a.s.): good to very good herbicidal action
herbicidal action against ECHCG ([2]; 31.3 g/ha (a.s.)): good to very good herbicidal action
herbicidal action against CHEAL ([3]; 16.5 g/ha of a.s.): good to very good herbicidal action
pest or weed control at 31.3 g/ha ([3]; Chenopodium album, 31.3 g/ha (a.s.), read-out: herbicidal action against CHEAL): ≥ 95%
pest or weed control at 31.3 g/ha [4]: ≥ 95%

SMILES: C=CCn1c(=O)oc2ccc(C(=O)C3=C(O)CCCC3=O)c(C)c21 [Compound I-1a.29]
herbicidal action against AMARE [5]: very good herbicidal action (A damage of at least 95% corresponds to very good herbicidal action)

SMILES: CCCCn1c(=O)oc2ccc(C(=O)C3=C(O)CCCC3=O)c(C)c21 [Compound I-1a.6]
herbicidal action against AMARE [5]: very good herbicidal action (A damage of at least 95% corresponds to very good herbicidal action)

SMILES: Cc1c(C(=O)C2=C(O)CC(C)(C)CC2=O)ccc2sc(=O)n(C)c12 [Compound I-1c.1129, 3,4-dimethyl-5-(5′,5′-dimethyl-1′,3′-cyclohexanedion-2′-yl)-carbonylbenzothiazol-2-one]
herbicidal action against PHBPU ([1]; 125 or 62.5 g/ha (a.s.)): very good herbicidal action (A damage of at least 95% corresponds to very good herbicidal action)

melting point: 143 to 150 °C
SMILES: C=CCn1c(=O)sc2ccc(C(=O)C3=C(O)CC(C)(C)CC3=O)c(C)c21 [Example 5]

melting point: 129 to 135 °C
SMILES: CCCn1c(=O)sc2ccc(C(=O)C3=C(O)CC(C)(C)CC3=O)c(C)c21 [Example 25]

SMILES: CCn1c(=O)sc2ccc(C(=O)C3=C(O)CC(C)(C)CC3=O)c(C)c21 [Compound I-1c.1131]
herbicidal action against SETFA [6]: very good herbicidal action (A damage of at least 95% corresponds to very good herbicidal action)

melting point: 207 to 209 °C
SMILES: Cc1c(C(=O)C2=C(O)CCCC2=O)ccc2oc(=O)n(C)c12 [Example 6]

SMILES: CCn1c(=O)sc2ccc(C(=O)C3=C(O)C4CCC(C4)C3=O)c(C)c21 (centres unmarked) [Compound I-1x.1131]
herbicidal action against SETFA [6]: very good herbicidal action (A damage of at least 95% corresponds to very good herbicidal action)
herbicidal action against BRAPL [7]: very good herbicidal action (A damage of at least 95% corresponds to very good herbicidal action)

melting point: 189 to 193 °C
SMILES: CCCn1c(=O)oc2ccc(C(=O)C3=C(O)CC(C)(C)CC3=O)c(C)c21 [Example 29]

melting point: 161 to 166 °C
SMILES: Cc1c(C(=O)C2=C(O)CC(C)(C)CC2=O)ccc2sc(=O)n(Cc3ccccc3)c12 [Example 32]

SMILES: CCn1c(=O)sc2ccc(C(=O)C3=C(O)C(C)(C)C(=O)C(C)(C)C3=O)c(C)c21 [Compound I-1d.1131]
herbicidal action against SETFA [6]: very good herbicidal action (A damage of at least 95% corresponds to very good herbicidal action)
herbicidal action against AMARE [5]: very good herbicidal action (A damage of at least 95% corresponds to very good herbicidal action)
herbicidal action against ABUTH [8]: very good herbicidal action (A damage of at least 95% corresponds to very good herbicidal action)

SMILES: CCCCn1c(=O)sc2ccc(C(=O)C3=C(O)C(C)(C)C(=O)C(C)(C)C3=O)c(C)c21 [Compound I-1d.1134]
herbicidal action against AMARE [5]: very good herbicidal action (A damage of at least 95% corresponds to very good herbicidal action)
herbicidal action against ABUTH [8]: very good herbicidal action (A damage of at least 95% corresponds to very good herbicidal action)

melting point: 139 to 143 °C
SMILES: Cc1c(C(=O)C2=C(O)CC(C)(C)CC2=O)ccc2oc(=O)n(C)c12 [Example 7]

melting point: 129 to 132 °C
SMILES: C=CCCn1c(=O)sc2ccc(C(=O)C3=C(O)C4CCC(C4)C3=O)c(C)c21 (centres unmarked) [Example 40]

melting point: 101 to 110 °C
SMILES: Cc1c(C(=O)C2=C(O)C3CCC(C3)C2=O)ccc2sc(=O)n(C)c12 (centres unmarked) [Example 4]

SMILES: CCn1c(=O)sc2ccc(C(=O)C3=C(O)CCCC3=O)c(C)c21 [Compound I-1a.1131]
herbicidal action against ABUTH [8]: very good herbicidal action (A damage of at least 95% corresponds to very good herbicidal action)

melting point: 150 to 151 °C
SMILES: CCn1c(=O)sc2ccc(C(=O)C3=C(n4cccn4)CC(C)(C)CC3=O)c(C)c21 [Example 21]

melting point: 115 to 116 °C
SMILES: CCCCn1c(=O)oc2ccc(C(=O)C3=C(O)CC(C)(C)CC3=O)c(C)c21 [Example 10]

melting point: 147 to 149 °C
SMILES: CC#CCn1c(=O)sc2ccc(C(=O)C3=C(O)CC(C)(C)CC3=O)c(C)c21 [Example 33]

SMILES: CCCCn1c(=O)sc2ccc(C(=O)C3=C(O)C4CCC(C4)C3=O)c(C)c21 (centres unmarked) [Compound I-1x.1134]
herbicidal action against SETFA [6]: very good herbicidal action (A damage of at least 95% corresponds to very good herbicidal action)
herbicidal action against ABUTH [8]: very good herbicidal action (A damage of at least 95% corresponds to very good herbicidal action)

SMILES: Cc1c(C(=O)C2=C(O)CCCC2=O)ccc2sc(=O)n(C)c12 [Compound I-1a.1129, 3,4-dimethyl-5-(1′,3′-cyclohexanedion-2′-yl)carbonylbenzothiazol-2-one]
herbicidal action against MATIN [9]: very good herbicidal action (A damage of at least 95% corresponds to very good herbicidal action)
herbicidal action against SINAL [10]: very good herbicidal action (A damage of at least 95% corresponds to very good herbicidal action)
herbicidal action against LAMAM [11]: very good herbicidal action (A damage of at least 95% corresponds to very good herbicidal action)
